Source: US12077503B2, “Substituted cyclic amides and their use as herbicides” (FMC CORPORATION, priority 2015, dated 2024)

Assays:
Type in all cases: in vivo
[1] = system: wheat (Triticum aestivum); experiment: Test A postemergence; conditions: Triticum aestivum, post-emergence, 240 h
Procedure, shortened: (§1)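 Seeds sprayed preemergence with a directed soil spray, or plants at 2 to 10 cm height and one- to two-leaf stage sprayed postemergence, with test chemicals in a non-phytotoxic solvent mixture containing surfactant, in loam soil–sand blend. Injury rated visually against untreated controls after about 10 d in greenhouse, 0 (no effect) to 100 (complete control).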

[2] = system: ryegrass, Italian (Italian ryegrass, Lolium multiflorum); experiment: Test A postemergence; conditions: Lolium multiflorum, post-emergence, 240 h
Procedure, shortened: as §1

[3] = system: blackgrass (Alopecurus myosuroides); experiment: Test A postemergence; conditions: Alopecurus myosuroides, post-emergence, 240 h
Procedure, shortened: as §1

[4] = system: pigweed (Amaranthus retroflexus); experiment: Test A postemergence; conditions: Amaranthus retroflexus, post-emergence, 240 h
Procedure, shortened: as §1

corn (Zea mays) = experiment: Test A postemergence; conditions: Zea mays, post-emergence, 240 h
Procedure, shortened: as §1

[5] = system: giant foxtail (Setaria faberii); experiment: Test A postemergence; conditions: Setaria faberi, post-emergence, 240 h
Procedure, shortened: as §1

Kochia (Kochia scoparia) [6] = experiment: Test A postemergence; conditions: Bassia scoparia, post-emergence, 240 h
Procedure, shortened: as §1

[7] = system: barnyardgrass (Echinochloa crus-galli); experiment: Test A postemergence; conditions: Echinochloa crus-galli, post-emergence, 240 h
Procedure, shortened: as §1

[8] = system: ragweed (common ragweed, Ambrosia elatior); experiment: Test A postemergence; conditions: Ambrosia artemisiifolia, post-emergence, 240 h
Procedure, shortened: as §1

[9] = system: ducksalad (Heteranthera limosa); experiment: Test B flooded paddy test; conditions: Heteranthera limosa, 250 g ai/ha, Flood; 0 to 100 scale where 0 is no effect and 100 is complete control; read-out: Ducksalad plant response rating
Procedure, shortened: (§2)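 Flooding to 3 cm over soil accompanied treatment, which consisted of adding compound to the standing water around 2-leaf plants; depth was then maintained. Visual assessment versus controls followed at 13 to 15 d (scale 0–100, 0 meaning no effect).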

rice (Oryra sativa) = experiment: Test B flooded paddy test; conditions: Oryza sativa, 250 g ai/ha, Flood; 0 to 100 scale where 0 is no effect and 100 is complete control; read-out: Rice plant response rating
Procedure, shortened: as §2

[10] = system: barnyardgrass (Echinochloa crus-galli); experiment: Test B flooded paddy test; conditions: Echinochloa crus-galli, 250 g ai/ha, Flood; 0 to 100 scale where 0 is no effect and 100 is complete control; read-out: Barnyardgrass plant response rating
Procedure, shortened: as §2

[11] = system: sedge, umbrella (small-flower umbrella sedge, Cyperus difformis); experiment: Test B flooded paddy test; conditions: Cyperus difformis, 250 g ai/ha, Flood; 0 to 100 scale where 0 is no effect and 100 is complete control; read-out: Sedge, Umbrella plant response rating
Procedure, shortened: as §2

[12] = system: ryegrass, Italian (Italian ryegrass, Lolium multiflorum); experiment: Test A preemergence; conditions: Lolium multiflorum, pre-emergence, 240 h, 0 to 100 scale where 0 is no effect and 100 is complete control, read-out: Ryegrass, Italian plant response rating
Procedure, shortened: as §1

[13] = system: pigweed (Amaranthus retroflexus); experiment: Test A preemergence; conditions: Amaranthus retroflexus, pre-emergence, 240 h, 0 to 100 scale where 0 is no effect and 100 is complete control, read-out: Pigweed plant response rating
[14] = system: giant foxtail (Setaria faberii); experiment: Test A preemergence; conditions: Setaria faberi, pre-emergence, 240 h, 0 to 100 scale where 0 is no effect and 100 is complete control, read-out: Foxtail, Giant plant response rating
Procedure, shortened: as §1

Kochia (Kochia scoparia) [15] = experiment: Test A preemergence; conditions: Bassia scoparia, pre-emergence, 240 h, 0 to 100 scale where 0 is no effect and 100 is complete control, read-out: Kochia plant response rating
Procedure, shortened: as §1

[16] = system: barnyardgrass (Echinochloa crus-galli); experiment: Test A preemergence; conditions: Echinochloa crus-galli, pre-emergence, 240 h, 0 to 100 scale where 0 is no effect and 100 is complete control, read-out: Barnyardgrass plant response rating
Procedure, shortened: as §1

[17] = system: ragweed (common ragweed, Ambrosia elatior); experiment: Test A preemergence; conditions: Ambrosia artemisiifolia, pre-emergence, 240 h, 0 to 100 scale where 0 is no effect and 100 is complete control, read-out: Ragweed plant response rating
Procedure, shortened: as §1

[18] = 125 g ai/ha, preemergence, approx. 10 d

Structure (SMILES): Cc1c(F)cccc1NC(=O)[C@H]1C(=O)N(C)C[C@@H]1c1cc(C(F)F)cs1 [Compound 1089]
- plant injury at 125 g/ha ([1]; 125 g ai/ha, postemergence, visual injury on 0 to 100 scale (0 no effect, 100 complete control), approx. 10 d, read-out: Wheat plant response rating): 30%
- plant injury at 31 g/ha ([1]; Postemergence, 31 g ai/ha, visual injury after approx. 10 d, 0 to 100 scale, 0 no effect, 100 complete control, read-out: Plant response rating, Wheat): 0%
- pest or weed control at 125 g/ha ([2]; 125 g ai/ha, postemergence, visual injury on 0 to 100 scale (0 no effect, 100 complete control), approx. 10 d, read-out: Ryegrass, Italian plant response rating): 0%
- pest or weed control at 31 g/ha ([2]; Postemergence, 31 g ai/ha, visual injury after approx. 10 d, 0 to 100 scale, 0 no effect, 100 complete control, read-out: Plant response rating, Ryegrass, Italian): 0%
- pest or weed control at 125 g/ha ([3]; 125 g ai/ha, postemergence, visual injury on 0 to 100 scale (0 no effect, 100 complete control), approx. 10 d, read-out: Blackgrass plant response rating): 30%
- pest or weed control at 31 g/ha ([3]; Postemergence, 31 g ai/ha, visual injury after approx. 10 d, 0 to 100 scale, 0 no effect, 100 complete control, read-out: Plant response rating, Blackgrass): 0%
- pest or weed control at 125 g/ha ([4]; 125 g ai/ha, postemergence, visual injury on 0 to 100 scale (0 no effect, 100 complete control), approx. 10 d, read-out: Pigweed plant response rating): 0%
- pest or weed control at 31 g/ha ([4]; Postemergence, 31 g ai/ha, visual injury after approx. 10 d, 0 to 100 scale, 0 no effect, 100 complete control, read-out: Plant response rating, Pigweed): 0%
- plant injury at 125 g/ha (corn (Zea mays); 125 g ai/ha, postemergence, visual injury on 0 to 100 scale (0 no effect, 100 complete control), approx. 10 d, read-out: Corn plant response rating): 30%
- Corn plant response rating (crop injury, 0 = no effect, 100 = complete kill) at 31 g/ha (corn (Zea mays); Postemergence, 31 g ai/ha, visual injury after approx. 10 d, 0 to 100 scale, 0 no effect, 100 complete control): 0%
- pest or weed control at 125 g/ha ([5]; 125 g ai/ha, postemergence, visual injury on 0 to 100 scale (0 no effect, 100 complete control), approx. 10 d, read-out: Foxtail, Giant plant response rating): 90%
- pest or weed control at 31 g/ha ([5]; Postemergence, 31 g ai/ha, visual injury after approx. 10 d, 0 to 100 scale, 0 no effect, 100 complete control, read-out: Plant response rating, Foxtail, Giant): 80%
- pest or weed control at 125 g/ha (Kochia (Kochia scoparia) [6]; 125 g ai/ha, postemergence, visual injury on 0 to 100 scale (0 no effect, 100 complete control), approx. 10 d, read-out: Kochia plant response rating): 0%
- pest or weed control at 31 g/ha (Kochia (Kochia scoparia) [6]; Postemergence, 31 g ai/ha, visual injury after approx. 10 d, 0 to 100 scale, 0 no effect, 100 complete control, read-out: Plant response rating, Kochia): 0%
- pest or weed control at 125 g/ha ([7]; 125 g ai/ha, postemergence, visual injury on 0 to 100 scale (0 no effect, 100 complete control), approx. 10 d, read-out: Barnyardgrass plant response rating): 90%
- pest or weed control at 31 g/ha ([7]; Postemergence, 31 g ai/ha, visual injury after approx. 10 d, 0 to 100 scale, 0 no effect, 100 complete control, read-out: Plant response rating, Barnyardgrass): 60%
- pest or weed control at 125 g/ha ([8]; 125 g ai/ha, postemergence, visual injury on 0 to 100 scale (0 no effect, 100 complete control), approx. 10 d, read-out: Ragweed plant response rating): 20%
- pest or weed control at 31 g/ha ([8]; Postemergence, 31 g ai/ha, visual injury after approx. 10 d, 0 to 100 scale, 0 no effect, 100 complete control, read-out: Plant response rating, Ragweed): 0%
- pest or weed control at 250 g/ha [9]: 85%
- pest or weed control at 250 g/ha (rice (Oryra sativa)): 0%
- pest or weed control at 250 g/ha [10]: 90%
- pest or weed control at 250 g/ha [11]: 0%
- pest or weed control at 31 g/ha ([12]; 31 g ai/ha, Preemergence): 0%
- pest or weed control at 125 g/ha [12, 18]: 10%
- pest or weed control at 31 g/ha ([13]; 31 g ai/ha, Preemergence): 0%
- pest or weed control at 125 g/ha [13, 18]: 0%
- pest or weed control at 31 g/ha ([14]; 31 g ai/ha, Preemergence): 100%
- pest or weed control at 125 g/ha [14, 18]: 100%
- pest or weed control at 31 g/ha (Kochia (Kochia scoparia) [15]; 31 g ai/ha, Preemergence): 0%
- pest or weed control at 125 g/ha (Kochia (Kochia scoparia) [15]; [18]): 20%
- pest or weed control at 31 g/ha ([16]; 31 g ai/ha, Preemergence): 90%
- pest or weed control at 125 g/ha [16, 18]: 90%
- pest or weed control at 31 g/ha ([17]; 31 g ai/ha, Preemergence): 0%
- pest or weed control at 125 g/ha [17, 18]: 60%
